Assay results from ChEMBL document CHEMBL4477188, “Callyazepin and (3R)-Methylazacyclodecane, Nitrogenous Macrocycles from a Callyspongia sp. Sponge” (J Nat Prod, 2016).

What was measured:
Staphylococcus aureus = test: Antimicrobial activity against Staphylococcus aureus ATCC 6538P after 24 hrs by serial two fold dilution method; format: functional
Micrococcus luteus = test: Antimicrobial activity against Micrococcus luteus IFC 12708 after 24 hrs by serial two fold dilution method; format: functional; conditions: IFC 12708, 24 h
A549 = test: Cytotoxicity against human A549 cells assessed as reduction in cell viability after 72 hrs by MTT assay; format: functional, cell-based; conditions: A549, 72 h
Escherichia coli = test: Antimicrobial activity against Escherichia coli ATCC 25922 after 24 hrs by serial two fold dilution method; format: functional; conditions: ATCC 25922, 24 h
Proteus vulgaris = test: Antimicrobial activity against Proteus vulgaris ATCC 3851 after 24 hrs by serial two fold dilution method; format: functional; conditions: ATCC 3851, 24 h
Bacillus spizizenii = test: Antimicrobial activity against Bacillus subtilis ATCC 6633 after 24 hrs by serial two fold dilution method; format: functional; conditions: ATCC 6633, 24 h
Salmonella typhimurium = test: Antimicrobial activity against Salmonella typhimurium ATCC 14028 after 24 hrs by serial two fold dilution method; format: functional, Salmonella enterica subsp. enterica serovar Typhimurium; conditions: Salmonella enterica, ATCC 14028, 24 h
K562 = test: Cytotoxicity against human K562 cells assessed as reduction in cell viability after 72 hrs by MTT assay; format: functional, cell-based; conditions: K562, 72 h

MIC (Staphylococcus aureus)	MIC (Micrococcus luteus)	MIC (Escherichia coli)	MIC (Proteus vulgaris)	MIC (Bacillus spizizenii)	MIC (Salmonella typhimurium)	Structure (SMILES)	IC50 (A549)	IC50 (K562)
≥ 128 µM	≥ 128 µM	≥ 128 µM	≥ 128 µM	≥ 128 µM	≥ 128 µM	C[C@@H]1CCCCCCCNC1	3.8 µM	3.2 µM
≥ 128 µM	≥ 128 µM	≥ 128 µM	≥ 128 µM	≥ 128 µM	≥ 128 µM	COC(=O)[C@H](C)[N@@+]1(C=O)CC[C@H]2CCCCCCCCCC[C@H]2[C@@H](C)C1	3 µM	7.4 µM
–	–	–	–	–	–	COc1cccc2c1C(=O)c1c(O)c3c(c(O)c1C2=O)C[C@@](O)(C(=O)CO)C[C@@H]3O[C@H]1C[C@H](N)[C@H](O)[C@H](C)O1 [DOXORUBICIN]	0.5 µM	0.8 µM
